From PMC10435442, “Developing multitarget coumarin based anti-breast cancer agents: synthesis and molecular modeling study” (Scientific Reports, 2023)
≈ marks a conversion by molar mass, not a printed value. Where “and” joins values, the source holds several entries; their conditions need not be identical. Identical values can stand only once. Like-named read-outs stand apart in the source and are kept apart here.

Tests used:
[1] = tested on: MCF-7; assay: MTT cytotoxicity assay, MCF-7; details: for IC50: Homo sapiens; for anti-proliferative activity against MCF-7 (in words): SAR discussion
[2] = tested on: MCF-10A; assay: MTT cytotoxicity assay, nonmalignant MCF-10A; details: for IC50: read-out: MCF-10A IC50, MTT, nonmalignant MCF-10A;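 on all read-outs here: MTT assay with absorbance read at 570 nm after 48 h exposure of cells to serial compound concentrations at 37 °C, testing selectivity against nonmalignant versus cancer cells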
[3] = in vitro; details: human
[4] = molecular target: EGFR (Homo sapiens, UniProt P00533); assay: In vitro EGFR enzyme inhibition assay (ELISA); details: for inhibition at 10 pg/mL / inhibition at 0.0001 µg/mL / inhibition at 0.001 µg/mL / inhibition at 0.01 µg/mL: read-out: EGFR %inh
EGFR, sequence (P00533 25-1210): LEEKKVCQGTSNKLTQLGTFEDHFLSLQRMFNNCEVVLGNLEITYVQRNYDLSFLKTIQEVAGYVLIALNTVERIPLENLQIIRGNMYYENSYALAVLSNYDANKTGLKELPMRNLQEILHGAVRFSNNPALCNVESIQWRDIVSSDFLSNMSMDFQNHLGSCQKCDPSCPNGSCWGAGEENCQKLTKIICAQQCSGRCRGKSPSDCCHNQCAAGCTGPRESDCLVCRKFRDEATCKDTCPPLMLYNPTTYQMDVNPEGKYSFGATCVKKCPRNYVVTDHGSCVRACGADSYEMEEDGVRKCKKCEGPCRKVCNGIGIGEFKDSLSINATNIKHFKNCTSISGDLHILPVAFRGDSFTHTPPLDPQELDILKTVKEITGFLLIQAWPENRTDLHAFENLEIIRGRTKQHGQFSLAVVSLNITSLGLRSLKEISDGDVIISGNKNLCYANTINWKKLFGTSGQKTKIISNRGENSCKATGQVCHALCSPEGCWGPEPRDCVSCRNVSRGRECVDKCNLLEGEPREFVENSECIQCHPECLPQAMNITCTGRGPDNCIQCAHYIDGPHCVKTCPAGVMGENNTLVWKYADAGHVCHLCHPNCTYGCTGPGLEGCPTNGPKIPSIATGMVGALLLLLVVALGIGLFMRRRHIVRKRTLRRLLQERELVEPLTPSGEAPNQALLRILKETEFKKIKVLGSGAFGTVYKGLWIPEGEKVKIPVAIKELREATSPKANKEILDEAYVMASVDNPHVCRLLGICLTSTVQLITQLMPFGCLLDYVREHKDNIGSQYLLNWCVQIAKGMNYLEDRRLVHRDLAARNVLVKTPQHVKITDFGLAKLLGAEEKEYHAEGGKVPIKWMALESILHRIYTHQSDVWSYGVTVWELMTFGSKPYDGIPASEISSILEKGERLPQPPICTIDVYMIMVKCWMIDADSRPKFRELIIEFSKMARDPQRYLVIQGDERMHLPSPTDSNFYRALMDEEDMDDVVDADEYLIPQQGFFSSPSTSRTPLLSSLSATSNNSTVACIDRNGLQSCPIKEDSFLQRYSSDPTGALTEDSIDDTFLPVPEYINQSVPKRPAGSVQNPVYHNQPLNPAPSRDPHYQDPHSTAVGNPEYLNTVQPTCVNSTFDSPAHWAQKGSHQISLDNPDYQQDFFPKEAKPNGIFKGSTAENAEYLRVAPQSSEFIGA

[5] = tested on: MDA-MB-231; assay: MTT cytotoxicity assay, MDA-MB-231; details: for IC50: Homo sapiens; for anti-proliferative activity against MDA-MB-231 (in words): SAR discussion; for % viability: MDA
[6] = MCF7, read-out: cytotoxicity_IC50 mcf7
[7] = MCF-10A cells (nonmalignant breast)
[8] = MDA-MB-231, read-out: MDA-MBA-231 IC50
[9] = MDA-MB-231, read-out: cytotoxicity_IC50 MDA
[10] = EGFR IC50, lab report 01-09-2021, 04 compounds, reference Erlotinib

SMILES | IC50 ([1]; MCF7, read-out: MCF-7 IC50) | IC50 [1, 6] | % viability ([1]; MCF7, 0.4ug) | % viability ([1]; MCF7, 1.6ug) | % viability ([1]; MCF7, 6.3ug) | % viability ([1]; MCF7, 25ug) | % viability ([1]; MCF7, 100ug) | anti-proliferative activity against MCF-7 (in words) [1] | IC50 [2] | IC50 at 48 h [3, 7] | viability at 48 h, 0.4 ug [3, 7] | viability at 48 h, 1.6 ug [3, 7] | viability at 48 h, 6.25 ug [3, 7] | viability at 48 h, 25 ug [3, 7] | viability at 48 h, 100 ug [3, 7] | IC50 [5, 8] | IC50 [5, 9] | % viability ([5]; 0.4ug (log conc. -0.41)) | % viability ([5]; 1.6ug (log conc. 0.19)) | % viability ([5]; 25ug (log conc. 1.4)) | other results
O=C(COc1ccc2c(COC(=O)c3ccc(Cl)cc3)cc(=O)oc2c1)c1ccccc1 [Compound 9, [2-Oxo-7-(2-oxo-2-phenylethoxy)-2H-chromen-4-yl]methyl 4-chlorobenzoate] | 100 ± 2.73 µM | 45 ± 2.73 µg/mL | 77.17% | 70.74% | 62.232% | 54.2277% | 44.25% | diminished the activity | 301 ± 6.56 µM | 135 ± 6.56 µg/mL (≈ 301 µM) | 90.6% | 79.6% | 70.3% | 61.8% | 52.3% | 10.4 ± 0.25 µM | 4.65 ± 0.25 µg/mL |  |  |  | IC50 ([4]; EGFR IC50, lab report 01-11-2021, 10 compounds): 0.131 µM; IC50 ([4]; EGFR inhibition IC50): 0.131 ± 0.009 µM; Percentage above Reference IC50 (potency relative to erlotinib) ([4]; reference Erlotinib): 64.122%; anti-proliferative activity against MDA-MB-231 (in words) [5]: poor anti-proliferative activity
COc1ccccc1C(=O)OCc1cc(=O)oc2cc(OCC(=O)c3ccccc3)ccc12 [Compound 11, [2-Oxo-7-(2-oxo-2-phenylethoxy)-2H-chromen-4-yl]methyl 2-methoxybenzoate] | 131 ± 3.52 µM | 58.1 ± 3.52 µg/mL | 86.03% | 75.27% | 65.137% | 57.0548% | 45.822% | diminished the activity | 178 ± 3.86 µM | 79.2 ± 3.86 µg/mL (≈ 178 µM) | 84.2% | 76.6% | 66.5% | 58.4% | 47.8% | 61.2 ± 1.48 µM | 27.2 ± 1.48 µg/mL | 73.69% | 66.71% | 52.2673% | IC50 [4, 10]: 1.83 µM; IC50 ([4]; EGFR inhibition IC50): 1.83 ± 0.038 µM; inhibition at 10 pg/mL [4]: 7.8%; inhibition at 0.0001 µg/mL [4]: 23%; inhibition at 0.001 µg/mL [4]: 54%; inhibition at 0.01 µg/mL [4]: 76%; Percentage above Reference IC50 (potency relative to erlotinib) ([4]; reference Erlotinib): 7.91%; % viability ([5]; 6.25ug (log conc. 0.8)): 58.055%; % viability ([5]; 100ug (log conc. 2)): 41.289%; anti-proliferative activity against MDA-MB-231 (in words) [5]: poor anti-proliferative activity
O=c1cc(CCl)c2ccc(O)cc2o1 [Compound 1, 4-chloromethyl-7-hydroxycoumarin] | 115 ± 1.47 µM | 24.3 ± 1.47 µg/mL | 77.743% and 77.74% | 67.269% and 67.27% | 59.663% and 59.66% | 49.002% and 49% | 41.1471% and 41.15% | devoid of activity | 442 ± 4.53 µM |  |  |  |  |  |  | 354 ± 4.06 µM | 74.5 ± 4.06 µg/mL | 88.396% and 88.4% | 77.133% and 77.13% | 56.655% and 56.66% | % viability ([2]; MCF10a, 0.4ug (log conc. -0.41)): 84.01%; % viability ([2]; MCF10a, 1.6ug (log conc. 0.19)): 75.58%; % viability ([2]; MCF10a, 6.25ug (log conc. 0.8)): 67.49%; % viability ([2]; MCF10a, 25ug (log conc. 1.4)): 56.99%; % viability ([2]; MCF10a, 100ug (log conc. 2)): 50.09%; IC50 at 48 h [3]: 93 ± 4.53 µg/mL (≈ 442 µM); viability at 48 h, 0.4 ug [3]: 84%; viability at 48 h, 1.6 ug [3]: 75.6%; viability at 48 h, 6.25 ug [3]: 67.5%; viability at 48 h, 25 ug [3]: 57%; viability at 48 h, 100 ug [3]: 50.1%; % viability ([5]; 6.25ug (log conc. 0.8)): 69.01%; % viability ([5]; 100ug (log conc. 2)): 48.4642% and 48.46%; anti-proliferative activity against MDA-MB-231 (in words) [5]: devoid of activity
O=C(COc1ccc2c(CCl)cc(=O)oc2c1)c1ccccc1 [Compound 5, 4-(Chloromethyl)-7-(2-oxo-2-phenylethoxy)-2H-chromen-2-one] | 39.5 ± 0.79 µM | 13 ± 0.79 µg/mL | 67.523% | 64.281% | 52.844% | 47.217% | 38.104% |  | 83.9 ± 1.35 µM | 27.6 ± 1.35 µg/mL (≈ 84 µM) | 74.4% | 66.7% | 57.6% | 49.9% | 43.5% | 5.8 ± 0.1 µM | 1.91 ± 0.1 µg/mL | 61.18% | 50.473% | 33.628% | IC50 [4, 10]: 0.316 µM; IC50 ([4]; EGFR inhibition IC50): 0.316 ± 0.0066 µM; inhibition at 10 pg/mL [4]: 29%; inhibition at 0.0001 µg/mL [4]: 50%; inhibition at 0.001 µg/mL [4]: 70%; inhibition at 0.01 µg/mL [4]: 90%; Percentage above Reference IC50 (potency relative to erlotinib) ([4]; reference Erlotinib): 54.886%; % viability ([5]; 6.25ug (log conc. 0.8)): 42.019%; % viability ([5]; 100ug (log conc. 2)): 22.3344%
COc1cccc2c1C(=O)c1c(O)c3c(c(O)c1C2=O)C[C@@](O)(C(=O)CO)C[C@@H]3O[C@H]1C[C@H](N)[C@H](O)[C@H](C)O1 [Doxorubicin, reference compound] | 5.6 ± 0.18 µM | 3.04 ± 0.18 µg/mL | 62.95% | 52.16% | 46.435% | 38.2693% | 28.946% |  | 22.8 ± 0.6 µM | 12.4 ± 0.6 µg/mL (≈ 22.8 µM) | 74% | 63.5% | 55.4% | 44.6% | 35.9% | 7.3 ± 0.22 µM | 3.98 ± 0.22 µg/mL |  |  | 40.9788% | % viability ([1]; MCF7, 0.4ug (log conc. -0.4089)): 62.9494%; % viability ([1]; MCF7, 1.6ug (log conc. 0.1931)): 52.1633%; % viability ([1]; MCF7, 6.25ug (log conc. 0.7959)): 46.4351%; % viability ([1]; MCF7, 100ug (log conc. 2)): 28.9458%; % viability ([2]; MCF10a cells, 0.4ug, listed as Dox): 73.9934%; % viability ([2]; MCF10a cells, 1.6ug, listed as Dox): 63.4983%; % viability ([2]; MCF10a cells, 6.25ug (6.3ug), listed as Dox): 55.4455%; % viability ([2]; MCF10a cells, 100ug, listed as Dox): 35.9076%; IC50 ([2]; listed as DOX): 12.4 µM; % viability ([5]; 0.4ug (log conc. -0.41), listed as Dox): 63.56% and 63.5613%; % viability ([5]; 1.6ug (log conc. 0.19), listed as Dox): 55.84% and 55.8373%; % viability ([5]; 6.25ug (log conc. 0.8), listed as Dox): 46.58% and 46.5802%; % viability ([5]; 100ug (log conc. 2), listed as Dox): 29.599% and 29.5991%
COc1ccccc1C(=O)OCc1cc(=O)oc2cc(OC(C)=O)ccc12 [Compound 15, (7-Acetoxy-2-oxo-2H-chromen-4-yl)methyl 2-methoxybenzoate] | 17.1 ± 0.38 µM | 6.3 ± 0.38 µg/mL | 67.97% | 58.26% | 50.063% | 42.623% | 31.337% | moderate anti-proliferative activity | 312 ± 5.62 µM | 115 ± 5.62 µg/mL (≈ 312 µM) | 86% | 78.2% | 68.2% | 60.1% | 50.8% | 74.9 ± 1.52 µM | 27.9 ± 1.52 µg/mL | 76.72% | 65.9% | 46.8873% | % viability ([5]; 6.25ug (log conc. 0.8)): 56.927%; % viability ([5]; 100ug (log conc. 2)): 37.745%
